Tests used:
[1] = Maximal solubility in water; format: physicochemical
[2] = In vitro skin penetration study using pig-ear (Bronaugh diffusion cells); format: in vitro ADME; details: receiver PBS pH 7.4, 32° C.; for Cumulative penetrated amount: 24-hour period, pig-ear skin; for Steady state flux: pig-ear skin approx. 900 μm, average ± SD
Procedure: Bronaugh diffusion cells were used for in vitro penetration studies, which were carried out to determine the flux (i.e. the speed by which the compound penetrates skin) and total cumulated amount penetrated of ^14C-active ingredient. The compound was dissolved in water at two concentrations, 35 and 135 mg/g. Pig-ear full-thickness skin (dermatomed to approx. 900 μm thick) was used as the membrane. The receiver compartment contained phosphate buffered saline (pH 7.4) and the temperature was maintained at 32° C. The compound solutions were applied onto the stratum corneum. Receiver compartment samples (2, 4, 8 12 and 14 h) were assayed by liquid scintillation counting. The transdermal flux (μg/cm^2/h) can be determined from the steady-state slope of the plot of the cumulative amount of active ingredient permeating through the skin versus time. After steady-state was established, the linear portion of the plot was used to calculate the flux from the slope.
The cumulative penetrated amounts and derived steady state fluxes for both tested concentrations during a 24-hour period are presented in FIG. 1 and TABLE 1.

[3] = test concentration 35 mg/g water
[4] = test concentration 135 mg/g water

maximal solubility in water [1]: 200 mg/g
Cumulative penetrated amount [2, 3]: 27 ± 36 μg/cm^2
Steady state flux [2, 3]: 2.6 ± 3.6 μg/cm^2/h
Cumulative penetrated amount [2, 4]: 55 ± 88 μg/cm^2
Steady state flux [2, 4]: 5.1 ± 9.0 μg/cm^2/h
Compound: CN[C@@H](C)C/C=C/c1cncc(OC(C)C)c1 [active ingredient, (2S)-(4E)-N-methyl-5-(3-(5-isopropoxypyridin)yl)-4-penten-2-amine]

From patent US20100247617A1, “Transdermal Administration Of (2S)-(4E)-N-Methyl-5-(3-(5-Isopropoxypyridin)yl)-4-Penten-2-Amine” (TARGACEPT, INC., priority 2007, published 2010)
